pEC50: −log10 of the molar value.
Biological target: T1, hSTING (Homo sapiens, UniProt Q86WV6, G230A/H232R/R293Q/R71H)
T1 construct: host or cells: THP1-Dual KO-IFNAR2 cells
Assay: STING reporter assay in THP1-Dual KO-IFNAR2 cells (2'3'cGAMP stimulation, luciferase reporter)
Assay type: cell-based
Settings: 15 μM 2'3'cGAMP, 24 h
Experimental: STING pathway activation by the compounds described herein was measured using THP1-Dual™ cells (KO-IFNAR2).
THP1-Dual™ KO-IFNAR2 Cells (obtained from invivogen) were maintained in RPMI, 10% FCS, 5 ml P/S, 2 mM L-glut, 10 mM Hepes, and 1 mM sodium pyruvate. Compounds were spotted in empty 384 well tissue culture plates (Greiner 781182) by Echo for a final concentration of 0.0017-100 μM. Cells were plated into the TC plates at 40 μL per well, 2×10E6 cells/mL. For activation with STING ligand, 2′3′cGAMP (MW 718.38, obtained from Invivogen), was prepared in Optimem media.
The following solutions were prepared for each 1×384 plate: • Solution A: 2 mL Optimem with one of the following stimuli: • 60 μL of 10 mM 2′3′cGAMP→150 μM stock • Solution B: 2 mL Optimem with 60 μL Lipofectamine 2000→Incubate 5 min at RT
2 mL of solution A and 2 ml Solution B was mixed and incubated for 20 min at room temperature (RT). 20 μL of transfection solution (A+B) was added on top of the plated cells, with a final 2′3′cGAMP concentration of 15 μM. The plates were then centrifuged immediately at 340 g for 1 minute, after which they were incubated at 37° C., 5% CO2, >98% humidity for 24 h. Luciferase reporter activity was then measured. EC50 values were calculated by using standard methods known in the art.
Luciferase reporter assay: 10 μL of supernatant from the assay was transferred to white 384-plate with flat bottom and squared wells. One pouch of QUANTI-Luc™ Plus was dissolved in 25 mL of water. 100 μL of QLC Stabilizer per 25 mL of QUANTI-Luc™ Plus solution was added. 50 μL of QUANTI-Luc™ Plus/QLC solution per well was then added. Luminescence was measured on a Platereader (e.g., Spectramax I3X (Molecular Devices GF3637001)).
Luciferase reporter activity was then measured. EC50 values were calculated by using standard methods known in the art.

T1 sequence (Q86WV6 whole entry R71H/G230A/H232R/R293Q): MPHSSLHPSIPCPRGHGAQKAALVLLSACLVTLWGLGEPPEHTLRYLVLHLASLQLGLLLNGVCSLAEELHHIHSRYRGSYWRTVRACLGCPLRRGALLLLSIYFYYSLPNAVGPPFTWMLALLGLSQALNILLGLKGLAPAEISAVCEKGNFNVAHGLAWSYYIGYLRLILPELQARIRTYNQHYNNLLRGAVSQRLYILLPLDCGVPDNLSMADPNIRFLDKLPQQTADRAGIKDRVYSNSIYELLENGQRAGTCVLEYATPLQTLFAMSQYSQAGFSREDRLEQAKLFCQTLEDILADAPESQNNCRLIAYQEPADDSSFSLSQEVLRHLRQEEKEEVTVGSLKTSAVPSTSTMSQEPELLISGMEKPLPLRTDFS

SMILES | pEC50 (class symbols) | pEC50 (numeric bound)
Cc1nc2ccc(Nc3cc(C#N)nc(Nc4ccc5cc[nH]c5c4)c3)cc2s1 [Compound 105, 6-[(1H-indol-6-yl)amino]-4-[(2-methyl-1,3-benzothiazol-6-yl)amino]pyridine-2-carbonitrile] | 5.30 to 6.00 | –
N#Cc1cc(Nc2ccc(OC(F)(F)F)nc2)cc(Nc2ccc3cc[nH]c3c2)n1 [Compound 125, 6-[(1H-indol-6-yl)amino]-4-{[6-(trifluoromethoxy)pyridin-3-yl]amino}pyridine-2-carbonitrile] | 6.00 to 6.70 | –
CC1(C)C(=O)Nc2cc(Nc3cc(C#N)nc(Nc4cc(Cl)c5cc[nH]c5c4)c3)ccc21 [Compound 178, 6-[(4-chloro-1H-indol-6-yl)amino]-4-[(3,3-dimethyl-2-oxo-2,3-dihydro-1H-indol-6-yl)amino]pyridine-2-carbonitrile] | 6.00 to 6.70 | –
N#Cc1cc(N2CCOCC2)cc(Nc2cc(Cl)c3cc[nH]c3c2)n1 [Compound 161, 6-[(4-chloro-1H-indol-6-yl)amino]-4-(morpholin-4-yl)pyridine-2-carbonitrile] | 5.30 to 6.00 | –
N#Cc1cc(Nc2ccc(Cl)c(Cl)c2)cc(Nc2cc(Cl)c3cc[nH]c3c2)n1 [Compound 154, 6-[(4-chloro-1H-indol-6-yl)amino]-4-[(3,4-dichlorophenyl)amino]pyridine-2-carbonitrile] | 6.70 to 7.40 | –
Cc1ccc(Nc2cc(C#N)nc(Nc3ccc4cc[nH]c4c3)c2)cn1 [Compound 102, 6-[(1H-indol-6-yl)amino]-4-[(6-methylpyridin-3-yl)amino]pyridine-2-carbonitrile] | – | < 4.52
N#Cc1cc(Nc2cncc(Cl)c2)cc(Nc2cc(Cl)c3cc[nH]c3c2)n1 [Compound 175, 6-[(4-chloro-1H-indol-6-yl)amino]-4-[(5-chloropyridin-3-yl)amino]pyridine-2-carbonitrile] | 6.00 to 6.70 | –
CC(C)c1cncc(Nc2cc(C#N)nc(Nc3cc(Cl)c4cc[nH]c4c3)c2)c1 [Compound 162, 6-[(4-chloro-1H-indol-6-yl)amino]-4-{[5-(propan-2-yl)pyridin-3-yl]amino}pyridine-2-carbonitrile] | 6.00 to 6.70 | –
CNC(=O)c1ccc(Nc2cc(C#N)nc(Nc3cc(Cl)c4cc[nH]c4c3)c2)cc1F [Compound 190, 4-({2-[(4-chloro-1H-indol-6-yl)amino]-6-cyanopyridin-4-yl}amino)-2-fluoro-N-methylbenzamide] | 5.30 to 6.00 | –
N#Cc1cc(Nc2ccc(F)c(Cl)c2)cc(Nc2cc(Cl)c3cc[nH]c3c2)n1 [Compound 169, 6-[(4-chloro-1H-indol-6-yl)amino]-4-[(3-chloro-4-fluorophenyl)amino]pyridine-2-carbonitrile] | 6.70 to 7.40 | –
N#Cc1cc(Nc2cc(Cl)cc(OC(F)(F)F)c2)cc(Nc2ccc3cc[nH]c3c2)n1 [Compound 134, 4-{[3-chloro-5-(trifluoromethoxy)phenyl]amino}-6-[(1H-indol-6-yl)amino]pyridine-2-carbonitrile] | 6.00 to 6.70 | –
N#Cc1cc(N2CCC(C(F)(F)F)CC2)cc(Nc2ccc3cc[nH]c3c2)n1 [Compound 118, 6-[(1H-indol-6-yl)amino]-4-[4-(trifluoromethyl)piperidin-1-yl]pyridine-2-carbonitrile] | 5.30 to 6.00 | –
N#Cc1cc(Nc2ccc(F)c(F)c2)cc(Nc2cc(Cl)c3cc[nH]c3c2)n1 [Compound 168, 6-[(4-chloro-1H-indol-6-yl)amino]-4-[(3,4-difluorophenyl)amino]pyridine-2-carbonitrile] | 6.70 to 7.40 | –
Cc1nn(C)c2ccc(Nc3cc(C#N)nc(Nc4ccc5cc[nH]c5c4)c3)cc12 [Compound 108, 4-[(1,3-dimethyl-1H-indazol-5-yl)amino]-6-[(1H-indol-6-yl)amino]pyridine-2-carbonitrile] | 5.30 to 6.00 | –
N#Cc1cc(Nc2ccc(C(F)(F)F)c(Cl)c2)cc(Nc2ccc3cc[nH]c3c2)n1 [Compound 133, 4-{[3-chloro-4-(trifluoromethyl)phenyl]amino}-6-[(1H-indol-6-yl)amino]pyridine-2-carbonitrile] | 6.00 to 6.70 | –
N#Cc1cc(Nc2ccc3c(c2)OC(F)(F)O3)cc(Nc2ccc3cc[nH]c3c2)n1 [Compound 117, 4-[(2,2-difluoro-2H-1,3-benzodioxol-5-yl)amino]-6-[(1H-indol-6-yl)amino]pyridine-2-carbonitrile] | 6.00 to 6.70 | –
CC(C)CN1CCN(c2cc(C#N)nc(Nc3cc(Cl)c4cc[nH]c4c3)c2)CC1 [Compound 157, 6-[(4-chloro-1H-indol-6-yl)amino]-4-[4-(2-methylpropyl)piperazin-1-yl]pyridine-2-carbonitrile] | 5.30 to 6.00 | –
CC(C)(C)c1cncc(Nc2cc(C#N)nc(Nc3ccc4cc[nH]c4c3)c2)c1 [Compound 115, 4-[(5-tert-butylpyridin-3-yl)amino]-6-[(1H-indol-6-yl)amino]pyridine-2-carbonitrile] | 5.30 to 6.00 | –
N#Cc1cc(Nc2cncc(F)c2)cc(Nc2cc(Cl)c3cc[nH]c3c2)n1 [Compound 158, 6-[(4-chloro-1H-indol-6-yl)amino]-4-[(5-fluoropyridin-3-yl)amino]pyridine-2-carbonitrile] | 6.00 to 6.70 | –
N#Cc1cc(N2CCC(Oc3ccccc3)CC2)cc(Nc2ccc3cc[nH]c3c2)n1 [Compound 119, 6-[(1H-indol-6-yl)amino]-4-(4-phenoxypiperidin-1-yl)pyridine-2-carbonitrile] | 6.00 to 6.70 | –
N#Cc1cc(Nc2ccc3c(c2)OCCO3)cc(Nc2ccc3cc[nH]c3c2)n1 [Compound 144, 4-[(2,3-dihydro-1,4-benzodioxin-6-yl)amino]-6-[(1H-indol-6-yl)amino]pyridine-2-carbonitrile] | 5.30 to 6.00 | –
N#Cc1cc(N2CCN(CC(F)(F)F)CC2)cc(Nc2ccc3cc[nH]c3c2)n1 [Compound 120, 6-[(1H-indol-6-yl)amino]-4-[4-(2,2,2-trifluoroethyl)piperazin-1-yl]pyridine-2-carbonitrile] | 4.00 to 5.30 | –
N#Cc1cc(Nc2ccc3c(c2)C(=O)NC3)cc(Nc2cc(Cl)c3cc[nH]c3c2)n1 [Compound 180, 6-[(4-chloro-1H-indol-6-yl)amino]-4-[(3-oxo-2,3-dihydro-1H-isoindol-5-yl)amino]pyridine-2-carbonitrile] | 5.30 to 6.00 | –
CC1(C)C(=O)Nc2cc(Nc3cc(C#N)nc(Nc4ccc5cc[nH]c5c4)c3)ccc21 [Compound 122, 4-[(3,3-dimethyl-2-oxo-2,3-dihydro-1H-indol-6-yl)amino]-6-[(1H-indol-6-yl)amino]pyridine-2-carbonitrile] | 5.30 to 6.00 | –
N#Cc1cc(N2CCC(F)(F)CC2)cc(Nc2ccc3cc[nH]c3c2)n1 [Compound 106, 4-(4,4-difluoropiperidin-1-yl)-6-[(1H-indol-6-yl)amino]pyridine-2-carbonitrile] | – | < 4.52
N#Cc1cc(Nc2ccc3c(c2)OC(F)(F)O3)cc(Nc2cc(Cl)c3cc[nH]c3c2)n1 [Compound 177, 6-[(4-chloro-1H-indol-6-yl)amino]-4-[(2,2-difluoro-2H-1,3-benzodioxol-5-yl)amino]pyridine-2-carbonitrile] | 6.70 to 7.40 | –
N#Cc1cc(N2CCOCC2)cc(Nc2ccc3cc[nH]c3c2)n1 [Compound 114, 6-[(1H-indol-6-yl)amino]-4-(morpholin-4-yl)pyridine-2-carbonitrile] | 4.00 to 5.30 | –
CC(C)(C)c1cncc(Nc2cc(C#N)nc(Nc3cc(Cl)c4cc[nH]c4c3)c2)c1 [Compound 163, 4-[(5-tert-butylpyridin-3-yl)amino]-6-[(4-chloro-1H-indol-6-yl)amino]pyridine-2-carbonitrile] | 6.00 to 6.70 | –

Reference: US20240076285A1, “COMPOUNDS AND COMPOSITIONS FOR TREATING CONDITIONS ASSOCIATED WITH STING ACTIVITY” (IFM Due, Inc., priority 2020, published 2024)
